For 6 compounds, mutagenic call results are on record in PubChem BioAssay AID1259407 (Chemical Carcinogenesis Research Information System (CCRIS), 2018).

The data set has as its system CCRIS mutagenicity, Ames/micronucleus/aberration tests. The data set can be described thus: CCRIS mutagenicity studies.
[1] abbreviates: Test System: AMES SALMONELLA TYPHIMURIUM, Strain/Indicator: TA98, Metabolic Activation: NONE, Method: STANDARD PLATE.
Where [2] appears, read: Test System: AMES SALMONELLA TYPHIMURIUM, Strain/Indicator: TA98, Metabolic Activation: RAT, LIVER, S-9, AROCLOR 1254, Method: STANDARD PLATE.
The mark [3] stands for this setting: Test System: AMES SALMONELLA TYPHIMURIUM, Strain/Indicator: TA100, Metabolic Activation: NONE, Method: STANDARD PLATE.
[4] abbreviates: Test System: AMES SALMONELLA TYPHIMURIUM, Strain/Indicator: TA100, Metabolic Activation: RAT, LIVER, S-9, AROCLOR 1254, Method: STANDARD PLATE.
The mark [5] stands for this setting: Test System: AMES SALMONELLA TYPHIMURIUM, Strain/Indicator: TA1535, Metabolic Activation: NONE, Method: STANDARD PLATE.
Where [6] appears, read: Test System: AMES SALMONELLA TYPHIMURIUM, Strain/Indicator: TA1535, Metabolic Activation: RAT, LIVER, S-9, AROCLOR 1254, Method: STANDARD PLATE.
[7] abbreviates: Test System: AMES SALMONELLA TYPHIMURIUM, Strain/Indicator: TA1537, Metabolic Activation: NONE, Method: STANDARD PLATE.
Where [8] appears, read: Test System: AMES SALMONELLA TYPHIMURIUM, Strain/Indicator: TA1537, Metabolic Activation: RAT, LIVER, S-9, AROCLOR 1254, Method: STANDARD PLATE.
The mark [9] stands for this setting: Test System: AMES SALMONELLA TYPHIMURIUM, Strain/Indicator: TA1538, Metabolic Activation: NONE, Method: STANDARD PLATE.
Where [10] appears, read: Test System: AMES SALMONELLA TYPHIMURIUM, Strain/Indicator: TA1538, Metabolic Activation: RAT, LIVER, S-9, AROCLOR 1254, Method: STANDARD PLATE.

Activity calls are given as the source filed them. The rule behind the calls is not given here.

Take `CCOC(=O)C(Cl)C(C)=O` (stereo not given): the mutagenic call is “inactive; negative” (Test System: AMES SALMONELLA TYPHIMURIUM, Strain/Indicator: TA98, Metabolic Activation: HAMSTER, LIVER, S-9, AROCLOR 1254, Method: STANDARD PLATE); “inactive; negative” under setting [1]; “inactive; negative” under setting [2]; “inactive; negative” (Test System: AMES SALMONELLA TYPHIMURIUM, Strain/Indicator: TA100, Metabolic Activation: HAMSTER, LIVER, S-9, AROCLOR 1254, Method: STANDARD PLATE); “inactive; negative” under setting [3]; “inactive; negative” under setting [4]. In addition, the mutagenic call was “inactive; negative” (Test System: AMES SALMONELLA TYPHIMURIUM, Strain/Indicator: TA1535, Metabolic Activation: HAMSTER, LIVER, S-9, AROCLOR 1254, Method: STANDARD PLATE); “inactive; negative” under setting [5]; “inactive; negative” under setting [6]; “inactive; negative” (Test System: AMES SALMONELLA TYPHIMURIUM, Strain/Indicator: TA1537, Metabolic Activation: HAMSTER, LIVER, S-9, AROCLOR 1254, Method: STANDARD PLATE); “inactive; negative” under setting [7]; “inactive; negative” under setting [8]. Besides, the mutagenic call is, setting by setting: (Test System: AMES SALMONELLA TYPHIMURIUM, Strain/Indicator: TA1538, Metabolic Activation: HAMSTER, LIVER, S-9, AROCLOR 1254, Method: STANDARD PLATE) “inactive; negative”; under setting [9], “inactive; negative”; under setting [10], “inactive; negative”; (Test System: MOUSE LYMPHOMA, Strain/Indicator: L5178Y (TK+/TK-), Metabolic Activation: NONE, Method: SUSPENSION/PLATE) “inactive; positive. reevaluation of results: negative”; (Test System: MOUSE LYMPHOMA, Strain/Indicator: L5178Y (TK+/TK-), Metabolic Activation: RAT, LIVER, S-9, AROCLOR 1254, Method: SUSPENSION/PLATE) “active; positive. reevaluation of results: inconclusive”.

As to `CCCCCCC(=O)OCCN1CCN(CCCN2c3ccccc3Sc3ccc(C(F)(F)F)cc32)CC1`, the mutagenic call by setting is: (Test System: AMES SALMONELLA TYPHIMURIUM, Strain/Indicator: TA98, Metabolic Activation: NONE) “inactive; negative”; (Test System: AMES SALMONELLA TYPHIMURIUM, Strain/Indicator: TA98, Metabolic Activation: RAT, LIVER, S-9, PHENOBARBITAL AND 5,6-BENZOFLAVONE) “inactive; negative”; (Test System: AMES SALMONELLA TYPHIMURIUM, Strain/Indicator: TA100, Metabolic Activation: NONE) “inactive; negative”; (Test System: AMES SALMONELLA TYPHIMURIUM, Strain/Indicator: TA100, Metabolic Activation: RAT, LIVER, S-9, PHENOBARBITAL AND 5,6 BENZOFLAVONE) “inactive; negative”; (Test System: AMES SALMONELLA TYPHIMURIUM, Strain/Indicator: TA1535, Metabolic Activation: NONE) “inactive; negative”; (Test System: AMES SALMONELLA TYPHIMURIUM, Strain/Indicator: TA1535, Metabolic Activation: RAT, LIVER, S-9, PHENOBARBITAL AND 5,6-BENZOFLAVONE) “inactive; negative”. Also, the mutagenic call by setting is: (Test System: AMES SALMONELLA TYPHIMURIUM, Strain/Indicator: TA1537, Metabolic Activation: NONE) “inactive; negative”; (Test System: AMES SALMONELLA TYPHIMURIUM, Strain/Indicator: TA1537, Metabolic Activation: RAT, LIVER, S-9, PHENOBARBITAL AND 5,6-BENZOFLAVONE) “inactive; negative”; (Test System: E. COLI, Strain/Indicator: WP2 UVRA, Metabolic Activation: NONE) “inactive; negative”; (Test System: E. COLI, Strain/Indicator: WP2 UVRA, Metabolic Activation: RAT, LIVER, S-9, PHENOBARBITAL AND 5,6 BENZOFLAVONE) “inactive; negative”.

Turning to `Clc1cc2c3ccccc3ccc2c2ccccc12`, the mutagenic call under setting [2] is “inactive; negative” and the mutagenic call under setting [4] is “active; positive”.

In the case of `NCC1CCC(C(=O)c2ccc(CCC(=O)O)cc2)CC1` (stereo not given), the mutagenic call is “inactive; negative” under setting [1]; “inactive; negative” under setting [2]; “inactive; negative” under setting [3]; “inactive; negative” under setting [4]; “inactive; negative” under setting [5]; “inactive; negative” under setting [6]. The mutagenic call is, setting by setting: under setting [7], “inactive; negative”; under setting [8], “inactive; negative”; under setting [9], “inactive; negative”; under setting [10], “inactive; negative”; (Test System: E. COLI, Strain/Indicator: WP2 UVRA, Metabolic Activation: NONE, Method: STANDARD PLATE) “inactive; negative”; (Test System: E. COLI, Strain/Indicator: WP2 UVRA, Metabolic Activation: RAT, LIVER, S-9, AROCLOR 1254, Method: STANDARD PLATE) “inactive; negative”.

Turning to `N[C@@H](CS)C(=O)OC(=O)NCCCl`, the mutagenic call under setting [5] was “active; positive”.

With `COC1=CC(=O)c2nc(C)c3c([nH]c4ccccc43)c2C1=O`, the mutagenic call by setting is: (Test System: AMES SALMONELLA TYPHIMURIUM, Strain/Indicator: TA97, Metabolic Activation: NONE, Method: STANDARD PLATE) “active; positive”; (Test System: AMES SALMONELLA TYPHIMURIUM, Strain/Indicator: TA97, Metabolic Activation: RAT, LIVER, S-9, AROCLOR 1254, Method: STANDARD PLATE) “active; positive”; under setting [1], “inactive; negative”; under setting [2], “active; positive”; under setting [3], “active; positive”; under setting [4], “inactive; negative”. Further, the mutagenic call by setting is: (Test System: AMES SALMONELLA TYPHIMURIUM, Strain/Indicator: TA102, Metabolic Activation: NONE, Method: STANDARD PLATE) “inactive; negative”; (Test System: AMES SALMONELLA TYPHIMURIUM, Strain/Indicator: TA102, Metabolic Activation: RAT, LIVER, S-9, AROCLOR 1254, Method: STANDARD PLATE) “inactive; negative”.
